From patent US20180132470A1, “CONTROLLED STAND-ALONE MATRIX SYSTEM FOR THE CONTROLLED DISTRIBUTION OF ACTIVE SUBSTANCES” (AB7 Innovation S.A.S.U., priority 2015, published 2018) come the findings set out here.

A short description of the data set: Release of IR3535 from cast polyurethane matrix, with and without heating activation. It counts as physicochemical. The procedure: For the matrix, the same inputs are used as in Example 1. The PMEO is replaced by insecticide (IR3535®), which represents 30% by weight in relation to the total weight of the matrix.
The electronic card is programmed as in Example 2 except that the heating is systematically cut off when the intra-matrix temperature reaches 150° C.
FIG. 4 represents the reference release profile of IR3535® which is a non-volatile substance at ambient temperature. […] The sequential and successive activations were performed for 18 hours at a rate of 10 minutes heating followed by 20 minutes' pause. The intra-matrix temperature measured was 45° C.

With `CCCCN(CCC(=O)OCC)C(C)=O` [IR3535®, ethyl-3-acetyl(butyl)amino-propanoate], under “after 590 sequences of heating”, the “residual quantity of IR3535 in relation to the quantity initially incorporated” value is 9.5 % by weight. For the same compound, the “release of IR3535 initially incorporated” value (after 18 hours, sequential activations 10 min heating / 20 min pause, intra-matrix 45° C., cast polyurethane matrix) is “up to 3 % by weight”. Further, the “release of IR3535 by passive diffusion” value (same polyurethane matrix unheated at ambient temperature, even after 20 hours) is “releases absolutely nothing”. Besides, the “average quantity of IR3535 released” value (solely at moments of activation, cast polyurethane matrix) came out at 3.5 mg/h.
